Molecular target: Huntingtin (Homo sapiens, UniProt P42858)
Test: Inhibition of Huntingtin protein (unknown origin) incubated for overnight in presence of MW1/MAB2166 monoclonal antibody by ELISA-based MSD electrochemiluminescence assay

Chain of Huntingtin (P42858 whole entry): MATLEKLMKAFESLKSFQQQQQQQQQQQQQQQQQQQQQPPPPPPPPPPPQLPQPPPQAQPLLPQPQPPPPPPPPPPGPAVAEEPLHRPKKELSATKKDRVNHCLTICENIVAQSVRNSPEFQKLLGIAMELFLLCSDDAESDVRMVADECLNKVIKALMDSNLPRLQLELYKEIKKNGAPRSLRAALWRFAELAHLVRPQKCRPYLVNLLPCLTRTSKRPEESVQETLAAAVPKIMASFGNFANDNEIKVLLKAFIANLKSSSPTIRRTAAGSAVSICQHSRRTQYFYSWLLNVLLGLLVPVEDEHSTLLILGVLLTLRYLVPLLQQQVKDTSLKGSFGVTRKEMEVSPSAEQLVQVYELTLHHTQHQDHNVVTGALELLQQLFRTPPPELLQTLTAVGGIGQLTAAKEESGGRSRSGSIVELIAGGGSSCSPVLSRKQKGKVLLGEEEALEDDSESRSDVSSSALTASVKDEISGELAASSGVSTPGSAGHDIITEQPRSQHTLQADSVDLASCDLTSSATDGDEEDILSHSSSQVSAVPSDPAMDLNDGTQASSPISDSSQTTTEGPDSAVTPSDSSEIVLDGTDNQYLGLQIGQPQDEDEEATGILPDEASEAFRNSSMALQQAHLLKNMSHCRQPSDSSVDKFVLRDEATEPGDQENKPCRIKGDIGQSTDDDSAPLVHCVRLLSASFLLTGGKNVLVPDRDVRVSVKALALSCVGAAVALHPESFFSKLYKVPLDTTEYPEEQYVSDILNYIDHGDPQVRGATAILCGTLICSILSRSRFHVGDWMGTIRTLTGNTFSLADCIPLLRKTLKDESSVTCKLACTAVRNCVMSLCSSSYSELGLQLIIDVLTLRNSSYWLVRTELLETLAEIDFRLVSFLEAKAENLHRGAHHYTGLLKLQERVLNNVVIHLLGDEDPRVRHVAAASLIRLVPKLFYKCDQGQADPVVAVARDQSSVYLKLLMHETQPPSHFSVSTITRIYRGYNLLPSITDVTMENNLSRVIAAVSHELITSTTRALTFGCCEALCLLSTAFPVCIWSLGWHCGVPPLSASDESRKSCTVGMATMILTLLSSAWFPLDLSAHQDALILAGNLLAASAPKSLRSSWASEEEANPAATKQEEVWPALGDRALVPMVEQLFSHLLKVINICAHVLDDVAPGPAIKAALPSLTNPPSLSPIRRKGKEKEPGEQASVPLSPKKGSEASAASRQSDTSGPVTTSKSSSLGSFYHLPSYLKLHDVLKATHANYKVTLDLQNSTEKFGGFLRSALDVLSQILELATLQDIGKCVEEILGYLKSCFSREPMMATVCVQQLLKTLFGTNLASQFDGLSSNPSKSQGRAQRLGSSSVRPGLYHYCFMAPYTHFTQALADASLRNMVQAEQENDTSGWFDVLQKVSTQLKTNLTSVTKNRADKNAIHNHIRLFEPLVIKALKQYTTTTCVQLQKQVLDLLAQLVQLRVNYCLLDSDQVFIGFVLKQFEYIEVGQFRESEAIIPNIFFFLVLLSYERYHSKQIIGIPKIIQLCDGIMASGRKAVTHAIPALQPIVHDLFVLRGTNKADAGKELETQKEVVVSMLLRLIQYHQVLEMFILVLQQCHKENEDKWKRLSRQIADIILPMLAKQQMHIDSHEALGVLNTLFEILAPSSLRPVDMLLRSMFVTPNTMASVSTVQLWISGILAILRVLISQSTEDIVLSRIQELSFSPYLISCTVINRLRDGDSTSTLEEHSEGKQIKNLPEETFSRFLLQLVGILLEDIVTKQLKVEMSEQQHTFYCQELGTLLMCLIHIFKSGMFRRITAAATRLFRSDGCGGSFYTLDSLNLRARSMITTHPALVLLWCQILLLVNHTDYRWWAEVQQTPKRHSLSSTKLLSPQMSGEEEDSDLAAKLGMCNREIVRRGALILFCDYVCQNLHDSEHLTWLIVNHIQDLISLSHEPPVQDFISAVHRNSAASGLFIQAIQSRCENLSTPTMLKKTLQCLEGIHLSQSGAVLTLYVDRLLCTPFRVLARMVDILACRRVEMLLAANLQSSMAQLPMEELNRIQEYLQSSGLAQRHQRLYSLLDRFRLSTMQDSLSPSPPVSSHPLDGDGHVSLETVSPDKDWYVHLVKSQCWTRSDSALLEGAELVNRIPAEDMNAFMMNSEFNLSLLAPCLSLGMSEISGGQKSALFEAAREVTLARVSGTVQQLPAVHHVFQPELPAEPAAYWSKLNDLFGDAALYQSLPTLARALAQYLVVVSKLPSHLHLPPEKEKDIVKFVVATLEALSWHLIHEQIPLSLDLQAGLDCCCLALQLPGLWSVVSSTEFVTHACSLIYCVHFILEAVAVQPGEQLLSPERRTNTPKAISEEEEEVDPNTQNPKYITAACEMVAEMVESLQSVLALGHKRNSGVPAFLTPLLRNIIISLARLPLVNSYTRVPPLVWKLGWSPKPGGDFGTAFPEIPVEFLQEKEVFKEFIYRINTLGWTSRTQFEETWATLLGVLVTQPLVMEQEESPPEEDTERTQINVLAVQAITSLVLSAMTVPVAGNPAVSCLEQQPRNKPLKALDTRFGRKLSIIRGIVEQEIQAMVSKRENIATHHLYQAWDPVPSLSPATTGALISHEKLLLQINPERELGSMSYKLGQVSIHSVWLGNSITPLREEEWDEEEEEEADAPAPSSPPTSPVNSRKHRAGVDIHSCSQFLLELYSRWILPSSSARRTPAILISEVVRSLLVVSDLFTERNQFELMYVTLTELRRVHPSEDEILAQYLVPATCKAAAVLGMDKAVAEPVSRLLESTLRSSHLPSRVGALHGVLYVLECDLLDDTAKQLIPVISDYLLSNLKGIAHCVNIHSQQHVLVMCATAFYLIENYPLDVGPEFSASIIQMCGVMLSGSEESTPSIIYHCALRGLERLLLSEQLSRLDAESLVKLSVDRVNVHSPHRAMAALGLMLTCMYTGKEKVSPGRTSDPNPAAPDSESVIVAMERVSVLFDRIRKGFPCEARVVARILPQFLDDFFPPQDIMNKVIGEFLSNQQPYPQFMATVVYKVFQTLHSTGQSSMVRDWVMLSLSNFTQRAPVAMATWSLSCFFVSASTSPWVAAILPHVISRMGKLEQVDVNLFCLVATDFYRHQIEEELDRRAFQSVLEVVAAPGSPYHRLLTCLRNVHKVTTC

SMILES | IC50 [nM]
CC1(C)CC(Nc2cnc(-c3ccc(-c4cn[nH]c4)cc3O)nn2)C(F)C(C)(C)N1 (stereo unspecified) | ≤ 100
CN(c1cnc(-c2ccc(-n3nccn3)cc2O)nn1)C1CC(C)(C)NC(C)(C)C1 | ≤ 100
Cn1cc(-c2ccc(-c3cnc(NC4CC(C)(C)NC(C)(C)C4)nn3)c(O)c2)cn1 | ≤ 100
CC(C)(C)NC1CCN(c2ncc(-c3ccc(-c4c[nH]nc4C#N)cc3O)nn2)C1 (stereo unspecified) | ≤ 100
CN(c1ncc(-c2ccc(-c3ncco3)cc2O)nn1)C1CC(C)(C)NC(C)(C)C1 | ≤ 100
CN(c1cnc(-c2ccc(-c3cn[nH]c3F)cc2O)nn1)C1CC(C)(C)NC(C)(C)C1 | ≤ 100

— ChEMBL document CHEMBL4715900, “Novel Substituted Monocyclic Heteroaryl Compounds for Treating Huntington's Disease” (ACS Med Chem Lett, 2021)
